Reference: ChEMBL document CHEMBL6182910, “Design, Synthesis, and Biological Evaluation of 4-(Difluoromethyl)-1H-imidazole-5-carboxylic Acids/4-(3-Cyanophenoxy)pyrimidine-5-carboxylic Acids as P2Y1 Receptor Antagonists for Ischemic Stroke Treatment” (J Med Chem, 2025)

Experiments:
[1] = Apparent volume of distribution male Sprague-Dawley rat at 10 mg/kg, po measured up to 24 hrs by LC-MS/MS analysis; format: ADME, organism-based; settings: in vivo
Rattus norvegicus [2] = experiment: Neuroprotective activity in MCAO-induced brain damage Sprague-Dawley rat model assessed as reduction in brain infarction size at 2.5 mg/kg, iv administered immediately after arterial occlusion measured after 24 hrs by TTC staining based analysis relative to control; format: functional; parameters: scale not given: the % may be the effect or the level left
[3] = MRT (0 to infinity) male Sprague-Dawley rat at 10 mg/kg, po measured up to 24 hrs by LC-MS/MS analysis; format: ADME, organism-based; settings: in vivo
[4] = AUC (0 to infinity) male Sprague-Dawley rat at 10 mg/kg, po measured up to 24 hrs by LC-MS/MS analysis; format: ADME, organism-based; settings: in vivo
Rattus norvegicus [5] = experiment: Neuroprotective activity in MCAO-induced brain damage Sprague-Dawley rat model assessed as reduction in neurological deficit scores at 10 mg/kg, iv administered immediately after arterial occlusion measured after 24 hrs by Longa's method; format: functional, organism-based
CYP2A6 = target: T1, CYP2A6 (Homo sapiens, UniProt P11509); experiment: Inhibition of CYP2A6 in human liver microsomes using coumarin as substrate at 10 uM preincubated for 5 min followed by NADPH addition measured after 120 mins by LC-MS/MS analysis relative to control; format: ADME, Microsome; settings: probe coumarin, time 125 min
T1 sequence (P11509 whole entry): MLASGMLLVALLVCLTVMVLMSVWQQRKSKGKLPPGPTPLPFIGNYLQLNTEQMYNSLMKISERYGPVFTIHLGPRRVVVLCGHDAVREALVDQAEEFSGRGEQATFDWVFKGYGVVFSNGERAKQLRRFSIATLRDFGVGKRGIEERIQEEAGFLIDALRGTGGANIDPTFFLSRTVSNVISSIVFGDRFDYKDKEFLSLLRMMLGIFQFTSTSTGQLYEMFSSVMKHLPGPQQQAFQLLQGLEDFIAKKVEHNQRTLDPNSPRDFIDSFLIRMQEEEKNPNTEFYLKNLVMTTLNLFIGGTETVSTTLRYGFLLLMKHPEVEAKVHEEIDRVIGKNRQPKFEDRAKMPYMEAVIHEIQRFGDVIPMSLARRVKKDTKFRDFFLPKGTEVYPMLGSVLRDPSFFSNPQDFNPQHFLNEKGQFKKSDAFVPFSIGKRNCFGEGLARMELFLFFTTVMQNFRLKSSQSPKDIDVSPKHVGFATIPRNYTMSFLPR

[6] = Half life male Sprague-Dawley rat at 10 mg/kg, po measured up to 24 hrs by LC-MS/MS analysis; format: ADME, organism-based; settings: in vivo
HT-22 = experiment: Neuroprotective activity against H2O2-induced oxidative stress in mouse HT-22 cells assessed as cell viability at 10 uM preincubated for 2 hrs followed by H2O2 addition measured after 24 hrs by MTT assay (reference value: 55 +/- 4.6 %); format: functional; settings: time 26 hrs, read-out: Activity

SMILES | Vz [1] [L/kg] | Activity (Rattus norvegicus [2]) [%] | MRT inf [3] [min] | AUC ([4]; po, 10 mg/kg, 24 h) [ng·h/mL] | Activity (Rattus norvegicus [5]) | inhibition at 2 h, 10 µM (CYP2A6) [%] | t1/2 [6] [min] | viability at 10 µM (HT-22) [%] | AUC(0-inf) ([4]; male, Sprague-Dawley) [ng·h/mL]
N#Cc1cccc(Oc2nc(-c3cccc(C#N)c3)ncc2C(=O)O)c1 | 7.668 | 32 | 18.4 | 986 | Active; Activity Was Less Than Bptu | -17.7 | 15.7 | 94.7 | 
N#Cc1cccc(-c2nc(C(F)F)c(C(=O)O)n2OCc2csc(N)n2)c1 |  | 40.6 |  |  | Active; Activity Was Less Than Bptu | -13.5 |  | 90.7 | 36
